Seven molecules from DBAASP can be followed below.

Common to all, as to assay: ≥ marks a high value that may be exact or a test limit, other limits are often not marked, values filed in µg/mL are converted to µM
The subject of experiment [1] is Klebsiella pneumoniae ESBL 63575.
Experiment [2] concerns Stenotrophomonas maltophilia ATCC 13637.
Experiment [3] deals with Pseudomonas aeruginosa H1030.
Experiment [4] concerns Enterococcus faecalis W61950.
For experiment [5], the system named is Pseudomonas aeruginosa LES400.
For experiment [6], the system named is Pseudomonas aeruginosa PAO1 H103.
Experiment [7] concerns Enterococcus faecium mic80.
Experiment [8] concerns Pseudomonas aeruginosa H1027.
Experiment [9] deals with Escherichia coli ESBL 63103.
The subject of experiment [10] is Enterococcus faecium t62764.
Experiment [11] concerns Pseudomonas aeruginosa 213.
Experiment [12] relates to Staphylococcus aureus C623.
The test system of experiment [13] is Escherichia coli ESBL 64771.
Experiment [14] has as its system Enterococcus faecalis f43559.
The subject of another experiment is Pseudomonas aeruginosa 9.
Experiment [15] has as its system Staphylococcus aureus ATCC 25923.
In experiment [16] the test system is Pseudomonas aeruginosa 198.
Experiment [17] has as its system Enterobacter cloacae 218R.
The subject of experiment [18] is Enterococcus faecalis ATCC 29212.
For experiment [19], the system named is Klebsiella pneumoniae ESBL 61962.
In experiment [20] the test system is Batrachochytrium dendrobatidis JEL-197.
The subject of experiment [21] is Salmonella enterica subsp. enterica serovar Typhimurium ATCC 14028.
Experiment [22] has as its system Staphylococcus aureus ATCC 6538.
In experiment [23] the test system is Klebsiella pneumoniae ATCC 10031.
Experiment [24] concerns Pseudomonas aeruginosa ATCC 13388.
In experiment [25] the test system is Escherichia coli ATCC 11219.
The next experiment deals with Escherichia coli ML-35p.
Experiment [26] deals with Staphylococcus aureus ATCC 33591.
Experiment [27] relates to Escherichia coli ESBL 521/17.
In experiment [28] the test system is Staphylococcus aureus SG511.
In experiment [29] the test system is Acinetobacter baumannii 7226/16.
Experiment [30] has as its system Pseudomonas aeruginosa 522/17.
In experiment [31] the test system is Klebsiella pneumoniae ESBL 344/17.
Experiment [32] relates to Staphylococcus aureus 1399/17.

Values after ≈ are worked out from the molar mass of the structure shown. A value given as a limit tells only on which side of the number the result lay.

Turning to `CC[C@H](C)[C@H](NC(=O)[C@H](CCCCN)NC(=O)[C@H](Cc1c[nH]c2ccccc12)NC(=O)[C@@H](N)CCCCN)C(=O)N[C@@H](Cc1ccccc1)C(=O)N[C@@H](CCCN=C(N)N)C(=O)N[C@@H](CCCN=C(N)N)C(=O)N[C@@H](Cc1c[nH]c2ccccc12)C(=O)N[C@@H](Cc1c[nH]c2ccccc12)C(=O)O` [KWKIFRRWW], the MIC (commonly the smallest concentration in the dilution series that meets the test's criterion for growth inhibition) is at least 49.1 µM in [1]; 0.782 µM (≈ 1.1 µg/mL) in [2]; 24.2 µM (≈ 34 µg/mL) in [3]; at least 49.1 µM in experiment [4]; 6.05 µM (≈ 8.5 µg/mL) in [5]; 6.05 µM (≈ 8.5 µg/mL) in experiment [6]. In addition, the minimum inhibitory concentration (MIC) in [7] turned out to be 12.1 µM (≈ 17 µg/mL); in [8], 1.57 µM (≈ 2.2 µg/mL); in experiment [9] it was 12.1 µM (≈ 17 µg/mL); in experiment [10], 3.06 µM (≈ 4.3 µg/mL); in experiment [11] it was 24.2 µM (≈ 34 µg/mL); in [12] it was 1.57 µM (≈ 2.2 µg/mL). Besides, the MIC in experiment [13] is 6.05 µM (≈ 8.5 µg/mL); in [14], at least 49.1 µM; against Pseudomonas aeruginosa 9, 12.1 µM (≈ 17 µg/mL); in experiment [15] it was 1.57 µM (≈ 2.2 µg/mL); in experiment [16], 12.1 µM (≈ 17 µg/mL); in [17] it was 3.06 µM (≈ 4.3 µg/mL). Besides, the minimal inhibitory concentration (MIC) in [18] is 12.1 µM (≈ 17 µg/mL); in experiment [19] it was at least 98.2 µM.

Molecule `CC[C@H](C)[C@H](NC(=O)[C@H](CC(C)C)NC(=O)[C@H](CCCCN)NC(=O)[C@@H]1CCCN1C(=O)[C@@H](NC(=O)[C@H](CC(C)C)NC(=O)[C@H](CC(N)=O)NC(=O)[C@H](C)NC(=O)[C@H](C)NC(=O)[C@H](CC(C)C)NC(=O)CNC(=O)[C@H](C)NC(=O)[C@H](CC(C)C)NC(=O)[C@@H](NC(=O)[C@@H]1CCCN1C(=O)[C@H](CC(C)C)NC(=O)[C@@H](N)Cc1ccccc1)[C@@H](C)CC)C(C)C)C(=O)N[C@H]1CSSC[C@@H](C(=O)O)NC(=O)[C@H](CCCCN)NC(=O)[C@H](CCCCN)NC(=O)[C@H]([C@@H](C)O)NC(=O)[C@H]([C@@H](C)CC)NC(=O)[C@H](CO)NC1=O` [FLPILAGLAANLVPKLICSITKKC] gave an MIC in [20] of 12.5 µM (≈ 31.6 µg/mL).

Consider `CC[C@H](C)[C@H](NC(=O)[C@H](CC(N)=O)NC(=O)[C@H](CCCCN)NC(=O)[C@H](Cc1ccccc1)NC(=O)[C@H](CCCN=C(N)N)NC(=O)[C@H](Cc1c[nH]c2ccccc12)NC(=O)[C@H](C)N)C(=O)N[C@@H](CCCN=C(N)N)C(=O)N[C@@H](CCCCN)C(=O)O` [AWRFKNIRK], for which the minimal inhibitory concentration (MIC) in experiment [1], in experiment [2], in experiment [3], in [4], in [5] and in [6] was at least 149 µM in each case. For the same molecule, the MIC in [7] was at least 149 µM; in experiment [8] it was at least 74.7 µM; in experiment [9], at least 149 µM; in experiment [10] it was at least 149 µM; in experiment [11], at least 149 µM; in experiment [12], at least 149 µM. Moreover, the MIC in experiment [13] was at least 149 µM; in experiment [14], at least 149 µM; against Pseudomonas aeruginosa 9 it was at least 149 µM; in [15] it was 149 µM (≈ 182 µg/mL); in [16], at least 149 µM; in experiment [17] it was at least 149 µM. For the same molecule, the values for the MIC in experiment [18] and in experiment [19] were above 149 µM and at least 149 µM, respectively.

On to `CC[C@H](C)[C@H](NC(=O)CN)C(=O)N[C@@H](Cc1cnc[nH]1)C(=O)N[C@@H](CC(=O)O)C(=O)N[C@H](C(=O)N[C@@H](CC(C)C)C(=O)N[C@@H](CCCCN)C(=O)N[C@@H](Cc1ccc(O)cc1)C(=O)NCC(=O)N[C@@H](CCCCN)C(=O)N1CCC[C@H]1C(=O)N[C@@H](CO)C(N)=O)[C@@H](C)CC` [GIHDILKYGKPS], for which the MIC in experiment [21] was 20 µM (≈ 26.5 µg/mL); in experiment [22], 10 µM (≈ 13.3 µg/mL); in experiment [23], 10 µM (≈ 13.3 µg/mL); in experiment [24], 30 µM (≈ 39.8 µg/mL); in experiment [25], 5 µM (≈ 6.63 µg/mL).

For the molecule `CC[C@H](C)[C@H](NC(=O)[C@H](CCCN=C(N)N)NC(=O)[C@@H](NC(=O)[C@@H]1CCCN1C(=O)[C@@H]1CCCN1C(=O)[C@H](CCCN=C(N)N)NC(=O)[C@H](CCCN=C(N)N)NC(=O)[C@H](Cc1ccccc1)NC(=O)[C@@H]1CCCN1C(=O)[C@H](CC(C)C)NC(=O)[C@H](CCCN=C(N)N)NC(=O)[C@H](Cc1ccccc1)NC(=O)[C@@H](N)CCCN=C(N)N)[C@@H](C)CC)C(=O)N[C@@H](Cc1cnc[nH]1)C(=O)N1CCC[C@H]1C(=O)N1CCC[C@H]1C(=O)N1CCC[C@H]1C(=O)N[C@@H](Cc1ccccc1)C(=O)N[C@@H](Cc1ccc(O)cc1)C(N)=O` [RFRLPFRRPPIRIHPPPFY], the MIC in the experiment on Escherichia coli ML-35p was 4 µM (≈ 9.85 µg/mL); in experiment [26], at least 64 µM; in [27] it was 4 µM (≈ 9.85 µg/mL); in [28] it was 4 µM (≈ 9.85 µg/mL); in experiment [29], 16 µM (≈ 39.4 µg/mL); in experiment [30], at least 64 µM. Further, the MIC was 8 µM (≈ 19.7 µg/mL) in experiment [31] and at least 32 µM in experiment [32].

`CC[C@H](C)[C@H](NC(=O)CN)C(=O)N[C@@H](Cc1cnc[nH]1)C(=O)N[C@@H](CCCN=C(N)N)C(=O)N[C@H](C(=O)N[C@@H](CC(C)C)C(=O)N[C@@H](CCCCN)C(=O)N[C@@H](Cc1ccc(O)cc1)C(=O)NCC(=O)N[C@@H](CCCCN)C(=O)N1CCC[C@H]1C(=O)N[C@@H](CO)C(N)=O)[C@@H](C)CC` [GIHRILKYGKPS]: the MIC turned out to be 3 µM (≈ 4.1 µg/mL) in experiment [21]; 10 µM (≈ 13.7 µg/mL) in experiment [22]; 3 µM (≈ 4.1 µg/mL) in [23]; 10 µM (≈ 13.7 µg/mL) in [24]; 2.2 µM (≈ 3.01 µg/mL) in [25].

As to `CC[C@H](C)[C@H](NC(=O)[C@@H](N)CCCN=C(N)N)C(=O)N[C@@H](Cc1cnc[nH]1)C(=O)N1CCC[C@H]1C(=O)N1CCC[C@H]1C(=O)N1CCC[C@H]1C(=O)N[C@@H](Cc1ccccc1)C(=O)N[C@@H](Cc1ccc(O)cc1)C(=O)N1CCC[C@H]1C(=O)N1CCC[C@H]1C(=O)N[C@@H](Cc1ccccc1)C(=O)N[C@@H](CCCN=C(N)N)C(=O)N[C@@H](CCCN=C(N)N)C(=O)N[C@@H](Cc1ccccc1)C(=O)N[C@@H](CC(C)C)C(N)=O` [RIHPPPFYPPFRRFL], the minimum inhibitory concentration (MIC) against Escherichia coli ML-35p was at least 64 µM; in experiment [26], at least 90.5 µM; in experiment [27], at least 32 µM; in [28], 8 µM (≈ 15.5 µg/mL); in [29], at least 32 µM; in [30], at least 128 µM. The MIC in experiment [31] was at least 64 µM; in experiment [32], at least 32 µM.
